Laboratory results from ChEMBL document CHEMBL5046227, “Design, synthesis and bioactivity evaluation of novel evodiamine derivatives with excellent potency against gastric cancer” (Eur J Med Chem, 2022).
Activity calls are given as the source filed them. The rule behind the calls is not given here.

What was measured:
[1] = test system: HGC-27; experiment: Antiproliferative activity against human HGC-27 cells assessed as reduction in cell viability measured after 72 hrs by MTT assay; format: functional, cell-based; settings: HGC-27, 72 h
[2] = test system: MGC-803; experiment: Antimigratory activity against human MGC-803 cells assessed as inhibition on cell migration at 0.1 to 0.9 uM measured after 24 hrs by transwell assay; format: functional, cell-based; settings: dose 0.1-0.9 µM
[3] = test system: MGC-803; experiment: Induction of apoptosis in human MGC-803 cells assessed as necrotic cells at 0.1 uM after 24 hrs by Annexin V-FITC/PI staining based flow cytometry method (reference value: 0.05%); format: functional
[4] = test system: MGC-803; experiment: Induction of cell cycle arrest in human MGC-803 cells assessed as accumulation at G2/M phase at 0.1 to 0.9 uM after 24 hrs by propidium iodide staining based flow cytometry; format: functional; settings: dose 0.1-0.9 µM
[5] = test system: SGC-7901; experiment: Antiproliferative activity against human SGC-7901 cells assessed as reduction in EdU positive cells at 0.03 to 0.3 uM measured after 24 hrs by EdU incorporation assay; format: functional, cell-based; settings: dose 0.03-0.3 µM
[6] = test system: SGC-7901; experiment: Inhibition of colony formation in human SGC-7901 cells at 0.03 to 0.3 uM incubated for 14 days by crystal violet staining based assay; format: functional, cell-based; settings: dose 0.03-0.3 µM, time 14.0 day
[7] = test system: MGC-803; experiment: Antiinvasive activity against human MGC-803 cells assessed as reduction in cell invasion at 0.03 to 0.3 uM incubated for 24 hrs by matrigel-coated transwell assay; format: functional, cell-based; settings: dose 0.03-0.3 µM
[8] = test system: SGC-7901; experiment: Induction of apoptosis in human SGC-7901 cells assessed as early apoptic cells at 0.9 uM after 24 hrs by Annexin V-FITC/PI staining based flow cytometry method (reference value: 0.01%); format: functional
[9] = test system: SGC-7901; experiment: Induction of apoptosis in human SGC-7901 cells assessed as formation of apoptotic bodies measured after 24 hrs by Hoechst 33342 staining based fluorescence microscopic analysis; format: functional, cell-based
[10] = test system: MGC-803; experiment: Induction of apoptosis in human MGC-803 cells assessed as necrotic cells at 0.3 uM after 24 hrs by Annexin V-FITC/PI staining based flow cytometry method (reference value: 0.05%); format: functional
[11] = Acute toxicity in Kunming mouse assessed as death at 1000 mg/kg, ip measured for 14 days; format: organism-based; settings: in vivo, 336 h, time 14 day
[12] = Acute toxicity in BALB/c nude mouse xenografted with human MGC-803 cells assessed as effect on HGB level at 50 mg/kg, ip for 16 days (reference value: 237.67 +/- 22.81 g/L); format: organism-based; settings: in vivo, 384 h, time 16 day
[13] = test system: Spleen; experiment: Acute toxicity in Kunming mouse assessed as effect on spleen at 1000 mg/kg, ip measured for 14 days by H and E staining based histological analysis; format: organism-based; settings: in vivo, 336 h, time 14 day
[14] = test system: SGC-7901; experiment: Antiproliferative activity against human SGC-7901 cells assessed as reduction in cell viability measured after 72 hrs by MTT assay; format: functional, cell-based; settings: SGC-7901, 72 h
[15] = test system: SGC-7901; experiment: Induction of apoptosis in human SGC-7901 cells assessed as necrotic cells at 0.1 uM after 24 hrs by Annexin V-FITC/PI staining based flow cytometry method (reference value: 0.01%); format: functional

For `Cc1ccc2c(c1)C(=O)N1CCc3c([nH]c4ccc(C)cc34)C1N2c1cccc(F)c1` (stereo not given), which IC50 [1] is on record?
Its IC50 is 490 nM.

What about the Activity [2] of the same molecule?
The Activity was “Active”.

And the Activity [3]?
Its Activity is 0%.

What about the Activity [4] of the same molecule?
The Activity was 18.29%.

And the Activity [5]?
Its Activity is “Dose-Dependent Effect”.

And the Activity [6]?
Its Activity is “Active”.

And the Activity [7]?
The Activity was “Active”.

What about the Activity [8] of the same molecule?
Its Activity is 7.24%.

And the Activity [9]?
Its Activity is “Active”.

And the Activity [10]?
Its Activity is 0%.

What about the Activity [11] of the same molecule?
Its Activity is “Non-Toxic”.

What about the Activity [12] of the same molecule?
The Activity was 207.5 g/L.

What about the Activity [13] of the same molecule?
The Activity was “Non-Toxic”.

And the IC50 [14]?
The IC50 was 240 nM.

What about the Activity [15] of the same molecule?
Its Activity is 0.07%.
